The values that follow come from patent US20220016102A1, “ER PROTEIN REGULATORS AND USE THEREOF” (ShanghaiTech University, priority 2018, published 2022).

In experiment [1] the target is T1, ER protein (Homo sapiens, UniProt P03372).
T1 sequence (P03372 1-595): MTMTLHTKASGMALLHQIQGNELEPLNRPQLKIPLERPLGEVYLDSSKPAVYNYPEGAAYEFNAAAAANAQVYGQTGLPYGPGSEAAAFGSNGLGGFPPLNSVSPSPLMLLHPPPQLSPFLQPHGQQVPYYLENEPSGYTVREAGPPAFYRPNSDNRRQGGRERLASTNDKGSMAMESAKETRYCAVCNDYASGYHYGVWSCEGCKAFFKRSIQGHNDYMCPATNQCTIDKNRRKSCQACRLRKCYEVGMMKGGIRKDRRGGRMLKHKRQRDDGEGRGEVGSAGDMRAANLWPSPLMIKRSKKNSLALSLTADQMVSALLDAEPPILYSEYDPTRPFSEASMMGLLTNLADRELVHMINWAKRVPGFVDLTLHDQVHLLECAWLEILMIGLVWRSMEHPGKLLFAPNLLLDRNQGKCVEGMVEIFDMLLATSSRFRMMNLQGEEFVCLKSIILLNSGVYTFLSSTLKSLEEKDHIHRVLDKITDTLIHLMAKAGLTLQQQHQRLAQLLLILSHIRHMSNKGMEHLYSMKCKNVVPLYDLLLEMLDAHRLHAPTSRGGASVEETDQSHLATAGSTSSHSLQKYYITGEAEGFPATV
Briefly: Western blotting analysis of ER protein degradation in MCF-7 cell line. The class given is cell-based. Details: western blotting detection of the level of intracellular ER protein; endogenous in cells. The conditions noted are these: MCF-7 cells, Western blot gray values vs DMSO control. As to the method: MCF-7 were cultured in ncubator with 5% CO2 at 37° C. Complete medium was EMEM supplemented with 10% FBS, 100 U/mL Penicillin and Streptomycin, and 0.77 μg/mL recombinant human insulin. […]
DC50 value (the drug concentration required for degrading proteins by 50%, abbreviated as DC50) reads method: comparing the gray values of the Western blotting bands for the drug treatment with the gray values of the Western blotting band for the DMSO control, and reading the drug concentration range corresponding to the gray value of the Western blotting bands for the drug treatment which is equal to half of the gray value of the Western blotting band for the DMSO control.
DC50 value could also be calculated as follows: using software ImageJ to quantify the gray values of the Western blotting bands for the drug treatment, fitting the relationship curve between drug concentrations and gray values, and from the fitted curve, calculating the drug concentration corresponding to half of the gray value of the Western blotting band for the DMSO control.
A general note: In western blotting, separated proteins are transferred to a membrane and probed.

Experiment [2] deals with T1, ER protein. Put plainly: Western blotting analysis of ER protein degradation in T47D cell line. It is filed as cell-based. Set-up: western blotting detection of the level of intracellular ER protein; endogenous in cells; host or cells: T47D. The following applies: degradation of ER protein, T47D cells, drug treatment for 16 hours, Western blot gray values vs DMSO control; read-out: DC50 (nM)/T47Dcell line. As to the method: T47D cells were cultured in an incubator with 5% CO2 at 37° C. Complete medium was RPMI1640 supplemented with 10% Foetal bovine serum (FBS), 100 U/ml Penicillin and Streptomycin, and 0.77 μg/mL recombinant human insulin. Western blotting analysis of T47D cell line: • Cells were plated in a 24-well plate at a cell seeding […] of 1.5×10^5 cells/mL, with 1 ml cell suspensions per well. • After 24 h the cells were adherent, and the cells in each well were treated with 1 μL a certain concentration of ER protein regulators of the present disclosure. […] Afterwards, the membranes were block by using the Blocking Buffer, and the antibody incubation and development were performed. (The above procedures were all based on the antibody product manual of the manufacturer) DC50 value (the drug concentration required for degrading proteins by 50%, abbreviated as DC50) reads method: comparing the gray values of the Western blotting bands for the drug treatment with the gray values of the Western blotting band for the DMSO control, and reading the drug concentration range corresponding to the gray value of the Western blotting bands for the drug treatment which is equal to half of the gray value of the Western blotting band for the DMSO control. DC50 value could also be calculated as follows: using software ImageJ to quantify the gray values of the Western blotting bands for the drug treatment, fitting the relationship curve between drug concentrations and gray values, and from the fitted curve, calculating the drug concentration corresponding to half of the gray value of the Western blotting band for the DMSO control.

Structures are written as SMILES.

For the molecule `Cc1ncsc1-c1ccc(CNC(=O)[C@@H]2C[C@@H](O)CN2C(=O)[C@@H](NC(=O)CCOCCOCCC(=O)NCCOc2ccc(C(=C(CCCl)c3ccccc3)c3ccc(O)cc3)cc2)C(C)(C)C)cc1` [SIAIS208017, (2S,4R)-1-((S)-2-(tert-butyl)-16-(4-(4-chloro-1-(4-hydroxyphenyl)-2-phenylbut-1-en-1-yl)phenoxy)-4,13-dioxo-7,10-dioxa-3,14-diazahexadecanoyl)-4-hydroxy-N-(4-(4-methylthiazol-5-yl)benzyl)pyrrolidine-2-carboxamide], the figures for the DC50 in experiment [1] and in experiment [2] were less than 100 nM and less than 50 nM, respectively.
On the same counts, the results for `Cc1ncsc1-c1ccc(CNC(=O)[C@@H]2C[C@@H](O)CN2C(=O)[C@@H](NC(=O)CCOCCOCCOCCC(=O)NCCOc2ccc(C(=C(CCCl)c3ccccc3)c3ccc(O)cc3)cc2)C(C)(C)C)cc1` [SIAIS208018, (2S,4R)-1-((S)-2-(tert-butyl)-19-(4-(4-chloro-1-(4-hydroxyphenyl)-2-phenylbut-1-en-1-yl)phenoxy)-4,16-dioxo-7,10,13-trioxa-3,17-diazanonadecanoyl)-4-hydroxy-N-(4-(4-methylthiazol-5-yl)benzyl)pyrrolidine-2-carboxamide] are less than 50 nM and less than 50 nM.
For `Cc1ncsc1-c1ccc(CNC(=O)[C@@H]2C[C@@H](O)CN2C(=O)[C@@H](NC(=O)CCOCCOCCOCCOCCC(=O)NCCOc2ccc(C(=C(CCCl)c3ccccc3)c3ccc(O)cc3)cc2)C(C)(C)C)cc1` [SIAIS208019, N1-(2-(4-(4-chloro-1-(4-hydroxyphenyl)-2-phenylbut-1-en-1-yl)phenoxy)ethyl)-N16-((S)-1-((2S,4R)-4-hydroxy-2-((4-(4-methylthiazol-5-yl)benzyl)carbamoyl)pyrrolidin-1-yl)-3,3-dimethyl-1-oxobutan-2-yl)-4,7,10,13-tetraoxahexadecanediamide], in that order: less than 50 nM and less than 10 nM.
For `Cc1ncsc1-c1ccc(CNC(=O)[C@@H]2C[C@@H](O)CN2C(=O)[C@@H](NC(=O)CCC(=O)NCCOc2ccc(C(=C(CCCl)c3ccccc3)c3ccc(O)cc3)cc2)C(C)(C)C)cc1` [SIAIS208020, N1-(2-(4-(4-chloro-1-(4-hydroxyphenyl)-2-phenylbut-1-en-1-yl)phenoxy)ethyl)-N4-((S)-1-((2S,4R)-4-hydroxy-2-((4-(4-methylthiazol-5-yl)benzyl)carbamoyl)pyrrolidin-1-yl)-3,3-dimethyl-1-oxobutan-2-yl)succinamide], in that order: less than 50 nM and less than 10 nM.
Consider `Cc1ncsc1-c1ccc(CNC(=O)[C@@H]2C[C@@H](O)CN2C(=O)[C@@H](NC(=O)CCCC(=O)NCCOc2ccc(C(=C(CCCl)c3ccccc3)c3ccc(O)cc3)cc2)C(C)(C)C)cc1` [SIAIS208031, N1-(2-(4-(4-chloro-1-(4-hydroxyphenyl)-2-phenylbut-1-en-1-yl)phenoxy)ethyl)-N5-((S)-1-((2S,4R)-4-hydroxy-2-((4-(4-methylthiazol-5-yl)benzyl)carbamoyl)pyrrolidin-1-yl)-3,3-dimethyl-1-oxobutan-2-yl)glutaramide], for which the DC50 in experiment [1] and in experiment [2] was less than 100 nM each time.
Regarding `Cc1ncsc1-c1ccc(CNC(=O)[C@@H]2C[C@@H](O)CN2C(=O)[C@@H](NC(=O)CCCCC(=O)NCCOc2ccc(C(=C(CCCl)c3ccccc3)c3ccc(O)cc3)cc2)C(C)(C)C)cc1` [SIAIS208032, N1-(2-(4-(4-chloro-1-(4-hydroxyphenyl)-2-phenylbut-1-en-1-yl)phenoxy)ethyl)-N6-((S)-1-((2S,4R)-4-hydroxy-2-((4-(4-methylthiazol-5-yl)benzyl)carbamoyl)pyrrolidin-1-yl)-3,3-dimethyl-1-oxobutan-2-yl)adipamide], the values for the DC50 in experiment [1] and in experiment [2] were less than 100 nM and less than 50 nM, respectively.
Take `Cc1ncsc1-c1ccc(CNC(=O)[C@@H]2C[C@@H](O)CN2C(=O)[C@@H](NC(=O)CCCCCC(=O)NCCOc2ccc(C(=C(CCCl)c3ccccc3)c3ccc(O)cc3)cc2)C(C)(C)C)cc1` [SIAIS208033, N1-(2-(4-(4-chloro-1-(4-hydroxyphenyl)-2-phenylbut-1-en-1-yl)phenoxy)ethyl)-N7-((S)-1-((2S,4R)-4-hydroxy-2-((4-(4-methylthiazol-5-yl)benzyl)carbamoyl)pyrrolidin-1-yl)-3,3-dimethyl-1-oxobutan-2-yl)heptanediamide]: the DC50 in experiment [1] and in experiment [2] was less than 10 nM in each case.
With `Cc1ncsc1-c1ccc(CNC(=O)[C@@H]2C[C@@H](O)CN2C(=O)[C@@H](NC(=O)CCCCCCC(=O)NCCOc2ccc(C(=C(CCCl)c3ccccc3)c3ccc(O)cc3)cc2)C(C)(C)C)cc1` [SIAIS208034, N1-(2-(4-(4-chloro-1-(4-hydroxyphenyl)-2-phenylbut-1-en-1-yl)phenoxy)ethyl)-N8-((S)-1-((2S,4R)-4-hydroxy-2-((4-(4-methylthiazol-5-yl)benzyl)carbamoyl)pyrrolidin-1-yl)-3,3-dimethyl-1-oxobutan-2-yl)octanediamide], the DC50 in experiment [1] and in experiment [2] was less than 10 nM in each case.
Consider `Cc1ncsc1-c1ccc(CNC(=O)[C@@H]2C[C@@H](O)CN2C(=O)[C@@H](NC(=O)CCCCCCCCC(=O)NCCOc2ccc(/C(=C(/CCCl)c3ccccc3)c3ccc(O)cc3)cc2)C(C)(C)C)cc1` [SIAIS208036, N1-(2-(4-((Z)-4-chloro-1-(4-hydroxyphenyl)-2-phenylbut-1-en-1-yl)phenoxy)ethyl)-N10-((S)-1-((2S,4R)-4-hydroxy-2-((4-(4-methylthiazol-5-yl)benzyl)carbamoyl)pyrrolidin-1-yl)-3,3-dimethyl-1-oxobutan-2-yl)decanediamide], for which the DC50 in experiment [1] and in experiment [2] was less than 10 nM throughout.
Regarding `Cc1ncsc1-c1ccc(CNC(=O)[C@@H]2C[C@@H](O)CN2C(=O)[C@@H](NC(=O)CCCCCCCCCC(=O)NCCOc2ccc(C(=C(CCCl)c3ccccc3)c3ccc(O)cc3)cc2)C(C)(C)C)cc1` [SIAIS208037, N1-(2-(4-(4-chloro-1-(4-hydroxyphenyl)-2-phenylbut-1-en-1-yl)phenoxy)ethyl)-N11-((S)-1-((2S,4R)-4-hydroxy-2-((4-(4-methylthiazol-5-yl)benzyl)carbamoyl)pyrrolidin-1-yl)-3,3-dimethyl-1-oxobutan-2-yl)undecanediamide], the DC50 in experiment [1] and in experiment [2] was less than 10 nM throughout.
Regarding `Cc1ncsc1-c1ccc(CNC(=O)[C@@H]2C[C@@H](O)CN2C(=O)[C@@H](NC(=O)CCCCCCCCCCCCC(=O)NCCOc2ccc(C(=C(CCCl)c3ccccc3)c3ccc(O)cc3)cc2)C(C)(C)C)cc1` [SIAIS208038, N1-(2-(4-(4-chloro-1-(4-hydroxyphenyl)-2-phenylbut-1-en-1-yl)phenoxy)ethyl)-N14-((S)-1-((2S,4R)-4-hydroxy-2-((4-(4-methylthiazol-5-yl)benzyl)carbamoyl)pyrrolidin-1-yl)-3,3-dimethyl-1-oxobutan-2-yl)tetradecanediamide], the DC50 is less than 10 nM in experiment [1] and less than 50 nM in experiment [2].
On the same counts, the results for `Cc1ncsc1-c1ccc(CNC(=O)[C@@H]2C[C@@H](O)CN2C(=O)[C@@H](NC(=O)CCCCCCCCCCCCCCC(=O)NCCOc2ccc(C(=C(CCCl)c3ccccc3)c3ccc(O)cc3)cc2)C(C)(C)C)cc1` [SIAIS208039, N1-(2-(4-(4-chloro-1-(4-hydroxyphenyl)-2-phenylbut-1-en-1-yl)phenoxy)ethyl)-N16-((S)-1-((2S,4R)-4-hydroxy-2-((4-(4-methylthiazol-5-yl)benzyl)carbamoyl)pyrrolidin-1-yl)-3,3-dimethyl-1-oxobutan-2-yl)hexadecanediamide] are less than 100 nM and less than 50 nM.
